Like-named read-outs stand apart in the source and are kept apart here.
Key:
HCC827 = assay: CCK-8 tumor cell proliferation, HCC827; type: cell-based, Human; conditions: Table 11, designed based on EGFR inhibitors; 96 h
Description: The tumor cells used herein were cultured in a cell culture medium listed in table 4 at 37° C. in an incubator with 5% CO2.
(§1) After 24 h, 100 μL of the inoculated cells were treated with 0.5 μL of the compounds of the present disclosure (including the compounds in Tables 1 and 3, and compounds of examples) at 10 different successively decreasing concentrations (starting at the highest concentration of 10 μM; 5-fold serial dilutions). After the cells were treated with the compounds of the present disclosure for a period of time, the cell viability detection reagent was added to the culture medium for cell viability assessment according to the instructions provided with the CCK-8 kit. […] The growth inhibition of the compounds of the present disclosure on cells was plotted by Prism Graphpad software, and the IC50 values of the compounds of the present disclosure were calculated therefrom.

CCRF-CEM = assay: CCK-8 tumor cell proliferation, CCRF-CEM; type: cell-based, Human; conditions: Homo sapiens, CCRF-CEM, read-out: IC50 inhibiting proliferation of tumor cells, CCRF-CEM
Summary of the method: (§2)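 Viability determined colorimetrically with CCK-8 following compound treatment. Dosing began 24 h post-plating using ten 5-fold dilutions capped at 10 μM; growth-inhibition curves yielded IC50.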

Hep3B2.7-1 = assay: CCK-8 tumor cell proliferation, Hep3B2.7-1; type: cell-based, Human; conditions: Homo sapiens
Description: (§3) The tumor cells used herein were cultured in a cell culture medium listed in table 4 at 37° C. in an incubator with 5% CO2. Prior to experimentation, all cells used were correctly identified by STR profiling, and tested negative for mycoplasma through routine screenings.
as §1, with “IC50 values of the compounds of the present disclosure (including the compounds in Tables 1 and 3, and compounds of examples) were measured using the Meilun Cell Counting Kit-8 kit from Dalian Meilun Biotech Co., Ltd. Assay details are as follows: tumor cells were seeded in a 96-well plate at a density listed in Table 5. After 24” for “After 24”

Kasumi-1 = assay: CCK-8 tumor cell proliferation, Kasumi-1; type: cell-based, Human; conditions: Homo sapiens, Kasumi-1, read-out: IC50 inhibiting proliferation of tumor cells, Kasumi-1
Summary of the method: as §2

MM.1R = assay: CCK-8 tumor cell proliferation, MM.1R; type: cell-based; conditions: read-out: IC50 inhibiting proliferation of tumor cells, MM.1R
Description: as §3
as §1, with “IC50 values of the compounds of the present disclosure (including the compounds in Tables 1 and 3, and compounds of examples) were measured using the Meilun Cell Counting Kit-8 kit from Dalian Meilun Biotech Co., Ltd. Assay details are as follows: tumor cells were seeded in a 96-well plate at a density listed in Table 5. After 24” for “After 24”

Jurkat = assay: CCK-8 tumor cell proliferation, Jurkat; type: cell-based, Human; conditions: Homo sapiens, read-out: IC50 inhibiting proliferation of tumor cells, Jurkat
Summary of the method: as §2

LNcap = assay: CCK-8 tumor cell proliferation, LNcap; type: cell-based, Human; conditions: Homo sapiens; Table 19, IRAK4 inhibitor based; Lncap; read-out: IC50 inhibiting proliferation of tumor cells, Lncap
Description: as §3
as §1, with “IC50 values of the compounds of the present disclosure (including the compounds in Tables 1 and 3, and compounds of examples) were measured using the Meilun Cell Counting Kit-8 kit from Dalian Meilun Biotech Co., Ltd. Assay details are as follows: tumor cells were seeded in a 96-well plate at a density listed in Table 5. After 24” for “After 24”

[1] = Table 22, NTRK inhibitor based, HEP3B2.7-1, read-out: IC50 inhibiting proliferation of tumor cells, HEP3B2.7-1
[2] = Table 19, IRAK4 inhibitor based
[3] = Table 19, IRAK4 inhibitor based, Hep3B2.7-1, read-out: IC50 inhibiting proliferation of tumor cells, Hep3B2.7-1

Structure (SMILES)	IC50 (Hep3B2.7-1; [3]) [nM]	IC50 (Kasumi-1; [2]) [nM]	IC50 (MM.1R; [2]) [nM]	IC50 (LNcap) [nM]	IC50 (Jurkat; [2]) [nM]	also measured
COc1cc2ncnc(Nc3cccc(Cl)c3F)c2cc1OCc1ccc2c(c1)CN(C1CCC(=O)NC1=O)C2=O (centres unmarked) [GT-03325, 3-(5-(((4-((3-chloro-2-fluorophenyl)amino)-7-methoxyquinazolin-6-yl)oxy)methyl)-1-oxoisoindolin-2-yl)piperidine-2,6-dione]	–	–	–	–	–	IC50 for inhibiting the proliferation of tumor cells, HCC827 (HCC827): A+
O=C1CCC(N2Cc3cc(CN4CCN(c5cccc(-c6cnn7ccc(N8CCC[C@@H]8c8cc(F)ccc8F)nc67)n5)CC4)ccc3C2=O)C(=O)N1 (stereo partly drawn) [GT-04262, 3-(5-((4-(6-(5-((R)-2-(2,5-difluorophenyl)pyrrolidin-1-yl)pyrazolo[1,5-a]pyrimidin-3-yl)pyridin-2-yl)piperazin-1-yl)methyl)-1-oxoisoindolin-2-yl)piperidine-2,6-dione]	–	–	–	–	–	IC50 (CCRF-CEM; Table 22, NTRK inhibitor based): < 50 nM; IC50 (Hep3B2.7-1; [1]): < 50 nM; IC50 (Kasumi-1; Table 22, NTRK inhibitor based): 100 to 500 nM; IC50 (MM.1R; Table 22, NTRK inhibitor based): < 50 nM; IC50 (Jurkat; Table 22, NTRK inhibitor based): 100 to 500 nM
O=C1CCC(N2Cc3c(ccc(CN4CCN(c5cccc(-c6cnn7ccc(N8CCC[C@@H]8c8cc(F)ccc8F)nc67)n5)CC4)c3F)C2=O)C(=O)N1 (stereo partly drawn) [GT-04263, 3-(5-((4-(6-(5-((R)-2-(2,5-difluorophenyl)pyrrolidin-1-yl)pyrazolo[1,5-a]pyrimidin-3-yl)pyridin-2-yl)piperazin-1-yl)methyl)-4-fluoro-1-oxoisoindolin-2-yl)piperidine-2,6-dione]	–	–	–	–	–	IC50 (CCRF-CEM; Table 22, NTRK inhibitor based): 50 to 100 nM; IC50 (Hep3B2.7-1; [1]): < 50 nM; IC50 (Kasumi-1; Table 22, NTRK inhibitor based): 500 to 1000 nM; IC50 (MM.1R; Table 22, NTRK inhibitor based): < 50 nM; IC50 (Jurkat; Table 22, NTRK inhibitor based): 100 to 500 nM
O=C1CCC(N2Cc3cc(CN4CCN(c5ccc(-n6cc(NC(=O)c7coc(-c8ccnc(NCC(F)(F)F)c8)n7)c(C(F)F)n6)cc5)CC4)c(F)cc3C2=O)C(=O)N1 (centres unmarked) [GT-04269, N-(3-(difluoromethyl)-1-(4-(4-((2-(2,6-dioxopiperidin-3-yl)-6-fluoro-1-oxoisoindolin-5-yl)methyl)piperazin-1-yl)phenyl)-1H-pyrazol-4-yl)-2-(2-((2,2,2-trifluoroethyl)amino)pyridin-4-yl)oxazole-4-carboxamide]	< 50	50 to 100	100 to 500	100 to 500	50 to 100	IC50 (CCRF-CEM; [2]): 100 to 500 nM
O=C1CCC(N2Cc3c(CN4CCN(c5ccc(-n6cc(NC(=O)c7coc(-c8ccnc(NCC(F)(F)F)c8)n7)c(C(F)F)n6)cc5)CC4)cccc3C2=O)C(=O)N1 (centres unmarked) [GT-04271, N-(3-(difluoromethyl)-1-(4-(4-((2-(2,6-dioxopiperidin-3-yl)-1-oxoisoindolin-4-yl)methyl)piperazin-1-yl)phenyl)-1H-pyrazol-4-yl)-2-(2-((2,2,2-trifluoroethyl)amino)pyridin-4-yl)oxazole-4-carboxamide]	< 50	< 50	< 50	50 to 100	< 50	IC50 (CCRF-CEM; [2]): < 50 nM
O=C1CCC(N2C(=O)c3ccc(CN4CCN(c5ccc(-n6cc(NC(=O)c7coc(-c8ccnc(NCC(F)(F)F)c8)n7)c(C(F)F)n6)cc5)CC4)cc3C2=O)C(=O)N1 (centres unmarked) [GT-04272, N-(3-(difluoromethyl)-1-(4-(4-((2-(2,6-dioxopiperidin-3-yl)-1,3-dioxoisoindolin-5-yl)methyl)piperazin-1-yl)phenyl)-1H-pyrazol-4-yl)-2-(2-((2,2,2-trifluoroethyl)amino)pyridin-4-yl)oxazole-4-carboxamide]	500 to 1000	50 to 100	500 to 1000	100 to 500	1000 to 5000	–
C=CC(=O)Nc1cc(Nc2nccc(-c3cn(C)c4ccccc34)n2)c(OC)cc1N(C)CCN(C)C [osimertinib, Osimertinib, reference compound]	–	–	–	–	–	IC50 for inhibiting the proliferation of tumor cells, HCC827 (HCC827): A+
